“And” between values parts separate entries of the source, which are not always exact repeats. Equal entries are not always repeated. Inconclusive results and toxic doses are left out. Cut-off read from the data, not from the text of the source: active = T/C of 150% or more; inactive = T/C below 125%.
System: L1210 leukemia ip in BDF1 mice, survival T/C
Experiment: NCI In Vivo Anticancer Drug Screen. Data for tumor model L1210 Leukemia (intraperitoneal) in B6D2F1 (BDF1) mice
Conditions: endpoint: mean survival time, higher = longer survival
In short: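 Value reflects the ratio of survival in compound-treated mice to survival in vehicle-treated controls, with both groups carrying the same transplanted tumor.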

[1] = dose: 100.0 mg/kg/injection, schedule: Q01DX001 (ip), vehicle: saline with Tween-80
[2] = dose: 200.0 mg/kg/injection, schedule: Q01DX001 (ip), vehicle: saline with Tween-80
[3] = dose: 400.0 mg/kg/injection, schedule: Q01DX001 (ip), vehicle: saline with Tween-80
[4] = dose: 100.0 mg/kg/injection, schedule: Q04DX002 (ip), vehicle: Klucel (hydroxypropylcellulose) (HPC)
[5] = dose: 200.0 mg/kg/injection, schedule: Q04DX002 (ip), vehicle: Klucel (hydroxypropylcellulose) (HPC)
[6] = dose: 400.0 mg/kg/injection, schedule: Q04DX002 (ip), vehicle: Klucel (hydroxypropylcellulose) (HPC)
[7] = dose: 100.0 mg/kg/injection, schedule: Q04DX003 (ip), vehicle: saline with Tween-80
[8] = dose: 200.0 mg/kg/injection, schedule: Q04DX003 (ip), vehicle: saline with Tween-80
[9] = dose: 400.0 mg/kg/injection, schedule: Q04DX003 (ip), vehicle: saline with Tween-80
[10] = dose: 100.0 mg/kg/injection, schedule: Q04DX003 (ip), vehicle: Klucel (hydroxypropylcellulose) (HPC)
[11] = dose: 200.0 mg/kg/injection, schedule: Q04DX003 (ip), vehicle: Klucel (hydroxypropylcellulose) (HPC)
[12] = dose: 400.0 mg/kg/injection, schedule: Q04DX003 (ip), vehicle: Klucel (hydroxypropylcellulose) (HPC)

Measured: T/C

Cc1ccnc(NC(=O)NCCCl)c1
inactive: dose: 100.0 mg/kg/injection, schedule: Q01DX001 (ip), vehicle: carboxymethylcellulose (CMC) 103 % of control | dose: 200.0 mg/kg/injection, schedule: Q01DX001 (ip), vehicle: carboxymethylcellulose (CMC) 108 % of control | dose: 400.0 mg/kg/injection, schedule: Q01DX001 (ip), vehicle: carboxymethylcellulose (CMC) 108 % of control

O=C(c1ccccc1)C1CC1(C(=O)c1ccccc1)c1ccccc1 (centres undefined)
inactive: [1] 103 % of control | [2] 103 % of control | [3] 88 % of control

CC(c1ccccc1)n1cncc1C(=O)N1CCOCC1 (centres undefined)
inactive: [4] 104 % of control | [5] 97 % of control | [6] 123 % of control

CC(=O)Nc1onc(C)c1[N+](=O)[O-]
inactive: dose: 100.0 mg/kg/injection, schedule: Q01DX009 (ip), vehicle: saline 101 % of control | dose: 100.0 mg/kg/injection, schedule: Q04DX003 (ip), vehicle: other 91 % of control | dose: 200.0 mg/kg/injection, schedule: Q01DX009 (ip), vehicle: saline 98 % of control and 91 % of control | dose: 200.0 mg/kg/injection, schedule: Q04DX003 (ip), vehicle: other 92 % of control | dose: 400.0 mg/kg/injection, schedule: Q01DX009 (ip), vehicle: saline 94 % of control and 86 % of control | dose: 400.0 mg/kg/injection, schedule: Q04DX003 (ip), vehicle: other 94 % of control

CCCCCCCC/C=C/CCCCCCCCC1=NCCN1CCO
inactive: dose: 2.5 mg/kg/injection, schedule: Q01DX009 (ip), vehicle: saline 104 % of control | dose: 5.0 mg/kg/injection, schedule: Q01DX009 (ip), vehicle: saline 93 % of control | dose: 10.0 mg/kg/injection, schedule: Q01DX001 (ip), vehicle: saline 90 % of control | dose: 10.0 mg/kg/injection, schedule: Q01DX009 (ip), vehicle: saline 104 % of control | dose: 20.0 mg/kg/injection, schedule: Q01DX001 (ip), vehicle: saline 92 % of control

CN=C(N)c1ccc(N=C(N)c2cccc(C(N)=Nc3ccc(C(N)=NC)cc3)c2)cc1
inactive: dose: 15.0 mg/kg/injection, schedule: Q01DX Z (ip), vehicle: saline 97 % of control | dose: 30.0 mg/kg/injection, schedule: Q01DX Z (ip), vehicle: saline 120 % of control

Cc1ccccc1C(=O)C(=O)c1ccccc1C
inactive: dose: 100.0 mg/kg/injection, schedule: Q01DX009 (ip), vehicle: Klucel (hydroxypropylcellulose) (HPC) 95 % of control | dose: 200.0 mg/kg/injection, schedule: Q01DX009 (ip), vehicle: Klucel (hydroxypropylcellulose) (HPC) 106 % of control | dose: 400.0 mg/kg/injection, schedule: Q01DX009 (ip), vehicle: Klucel (hydroxypropylcellulose) (HPC) 93 % of control

CCCOC(C(=O)OC1CCN(C)CC1)(c1ccccc1)c1ccccc1
inactive: dose: 12.5 mg/kg/injection, schedule: Q01DX009 (ip), vehicle: saline 98 % of control | dose: 25.0 mg/kg/injection, schedule: Q01DX009 (ip), vehicle: saline 102 % of control | dose: 50.0 mg/kg/injection, schedule: Q01DX009 (ip), vehicle: saline 94 % of control

Cc1ncc(CO)c(/C=N/OCc2nnc(Nc3ccccc3)s2)c1O
inactive: [7] 92 % of control | [8] 101 % of control | [9] 106 % of control

N#CC(C#N)=Cc1ccc2ccc3cccc4ccc1c2c34
inactive: [10] 91 % of control | [11] 93 % of control | [12] 93 % of control

CC(=O)NC1CCCC(CC2CCCCC2)C1 (centres undefined)
inactive: [10] 103 % of control | [11] 93 % of control | [12] 98 % of control

COc1ccc(Cl)cc1NC(=O)C(Cl)(Cl)Cl
inactive: dose: 50.0 mg/kg/injection, schedule: Q01DX001 (ip), vehicle: saline with Tween-80 102 % of control | [1] 88 % of control and 92 % of control | dose: 100.0 mg/kg/injection, schedule: Q01DX009 (ip), vehicle: saline with Tween-80 94 % of control | dose: 100.0 mg/kg/injection, schedule: Q04DX002 (ip), vehicle: saline with Tween-80 100 % of control and 101 % of control | [2] 91 % of control | dose: 200.0 mg/kg/injection, schedule: Q01DX009 (ip), vehicle: saline with Tween-80 95 % of control and 89 % of control | dose: 200.0 mg/kg/injection, schedule: Q04DX002 (ip), vehicle: saline with Tween-80 93 % of control and 98 % of control | [3] 89 % of control | dose: 400.0 mg/kg/injection, schedule: Q04DX002 (ip), vehicle: saline with Tween-80 93 % of control and 94 % of control

CC(C)(C)N1CCC1CN (centres undefined)
inactive: dose: 75.0 mg/kg/injection, schedule: Q01DX001 (ip), vehicle: saline 104 % of control | dose: 150.0 mg/kg/injection, schedule: Q01DX001 (ip), vehicle: saline 102 % of control | dose: 300.0 mg/kg/injection, schedule: Q01DX001 (ip), vehicle: saline 102 % of control

C=CCCCCCCCCC(=O)O
inactive: dose: 100.0 mg/kg/injection, schedule: Q01DX009 (ip), vehicle: other 104 % of control | dose: 100.0 mg/kg/injection, schedule: Q04DX002 (ip), vehicle: other 87 % of control | dose: 200.0 mg/kg/injection, schedule: Q01DX009 (ip), vehicle: other 93 % of control | dose: 200.0 mg/kg/injection, schedule: Q04DX002 (ip), vehicle: other 112 % of control | dose: 400.0 mg/kg/injection, schedule: Q01DX009 (ip), vehicle: other 89 % of control

CCCCC[C@H](O)/C=C/[C@@H]1[C@@H](C/C=C\CCCC(=O)O)[C@@H](O)C[C@H]1O
inactive: dose: 0.25 mg/kg/injection, schedule: Q#A X020 (ip), vehicle: saline 98 % of control | dose: 0.5 mg/kg/injection, schedule: Q#A X020 (ip), vehicle: saline 96 % of control | dose: 1.0 mg/kg/injection, schedule: Q#A X020 (ip), vehicle: saline 101 % of control | dose: 2.0 mg/kg/injection, schedule: Q#A X020 (ip), vehicle: saline 104 % of control | dose: 5.0 mg/kg/injection, schedule: Q04DX002 (ip), vehicle: saline 96 % of control | dose: 10.0 mg/kg/injection, schedule: Q04DX002 (ip), vehicle: saline 96 % of control | dose: 20.0 mg/kg/injection, schedule: Q04DX002 (ip), vehicle: saline 88 % of control

Cc1ccc(-n2c(=O)c(N=Nc3ccc(Br)cc3)c(O)n(-c3ccccc3Cl)c2=S)cc1
inactive: dose: 37.5 mg/kg/injection, schedule: Q01DX001 (ip), vehicle: Klucel (hydroxypropylcellulose) (HPC) 107 % of control | dose: 75.0 mg/kg/injection, schedule: Q01DX001 (ip), vehicle: Klucel (hydroxypropylcellulose) (HPC) 110 % of control | dose: 150.0 mg/kg/injection, schedule: Q01DX001 (ip), vehicle: Klucel (hydroxypropylcellulose) (HPC) 104 % of control

CC(C)CCCC(C)C1CCC2(C)C3=C(C(=O)CC12C)C1(C)CCC(O)C(C)(C)C1/C(=N\O)C3=O (centres undefined)
inactive: [7] 94 % of control | [8] 96 % of control | [9] 97 % of control

CCN(CC)CC(=O)N1Cc2ccccc2CCc2ccccc2C1
inactive: dose: 100.0 mg/kg/injection, schedule: Q04DX003 (ip), vehicle: saline 92 % of control

CN(C)C(=S)SCSC(=S)N(C)C
inactive: dose: 25.0 mg/kg/injection, schedule: Q04DX003 (ip), vehicle: saline with Tween-80 100 % of control | dose: 50.0 mg/kg/injection, schedule: Q04DX003 (ip), vehicle: saline with Tween-80 91 % of control | [4] 97 % of control | [7] 91 % of control | [5] 93 % of control | [6] 93 % of control

Reference: PubChem BioAssay AID248 (DTP/NCI, 2004)
